Measured values from US20260297081A1, “COMPOUNDS AND METHODS OF TREATING CANCERS” (Cullgen Inc., priority 2023, published 2026).

Tests used:
Assay type in all cases: cell-based
[1] = test system: CCND1, CCND3, and CDK4 in Calu-1 cells; test: Immunoblot of CCND1, CCND3 and CDK4 protein levels in Calu-1 cells (FIG. 1A, 4 hours); conditions: Calu-1 cells, CDK4/6 inhibitor
Method: (§1) Specific exemplary heterobifunctional compounds were characterized in Calu-1, MCF7, T47D and other cells. Cells that express cyclin D1-3 and CDK4/6 proteins were treated with heterobifunctional compounds disclosed herein at indicated concentrations. MCF7 cells were deprived of serum for 2 hours followed by the treatment with heterobifunctional compounds. Cells were collected, lysed and subject to immunoblotting using an antibody specific to CCND1, CCND2, CCND3, CDK4, or FoxM1, cyclin A2, or phosphorylated Rb (S807/811) proteins. Tubulin or GAPDH was used as the loading control. DMSO treatment was used as the negative control.

[2] = test system: CCND1, CCND3, and CDK4 in MCF7 cells; test: Immunoblot of CCND1, CCND3 and CDK4 protein levels in MCF7 cells under serum starvation (FIG. 1B, 24 hours); conditions: MCF7 cells, CDK4/6 inhibitor
Method: as §1

T47D cells [3] = test: Flow cytometric analysis of Annexin V/7-AAD stained T47D cells (apoptosis), 6 days (FIG. 3A)
Method: (§2) T47D cells were treated with DMSO, palbociclib, heterobifunctional compound CPD-10 for 6 days at doses approximating IC50and IC90 concentrations as indicated (FIG. 3A). HCC1428 cells were treated with DMSO, palbociclib, heterobifunctional compound CPD-10, or its negative control compound CPD-143 for 6 days at doses approximating IC90 concentrations as indicated (FIG. 3B). Cells were harvested by trypsinization, staining was carried out using the Annexin V Apoptosis Detection Kit. The percentages of early apoptotic (Annexin V^+7-AAD^−, lower right quadrant), late apoptotic (Annexin V^+7-AAD^+, upper right quadrant) and necrotic cells (Annexin V^−7-AAD^+, upper left quadrant) are indicated on dot plots.

HCC1428 cells [4] = test: Flow cytometric analysis of Annexin V/7-AAD stained HCC1428 cells (apoptosis), 6 days (FIG. 3B); conditions: HCC1428; 1 μM; 6 days
Method: as §2

[5] = test system: T47D palbo-resistant cells; test: CellTiter-Lumi cell viability assay, T47D palbo-resistant cells, 6 days (FIG. 4); conditions: Homo sapiens, 144 h
Method: Furthermore, we developed one ER^+ breast cancer T47D model with acquired resistance after long period of treatment with 1 μM palbociclib (over IC90). Cells were deemed resistant when growing in the presence of palbo at the same rate as parental cells. Palbo resistance was determined by CellTiter-Lumi cell viability assay (FIG. 4, IC50>10,000 nM).

CCND1 = test: Immunoblotting of CCND1 protein level in Calu-1 and MCF7 cells (FIG. 1A-1B)
Method: (§3) Calu-1 cells were treated with heterobifunctional compound CPD-10, or CDK4/6 inhibitor palbociclib at indicated concentrations for 4 hours (FIG. 1A). MCF7 cells were deprived of serum for 2 hours followed by treatment with CPD-10, or palbociclib at indicated concentrations for 24 hours (FIG. 1B).
(§4) Antibody and Reagent Anti-cyclin D1 (29785), anti-cyclin D2 (3741S), anti-cyclin D3 (2936S), anti-CDK4 (127905), anti-CDK6 (3136S), anti-phospho-Rb (8516S), anti-FoxM1 (54365), anti-cyclinA2(4656S), anti-vinculin antibody (187995) antibodies were purchased from Cell Signaling Technology. HRP-conjugated anti-α-tubulin antibody and anti-α-GAPDH antibody were purchased from GNI. Media, and other cell culture reagents were purchased from Thermo Fisher Scientific. CellTiter-Glo Luminescent Assay kit was purchased from Promega.
(§5) Calu-1, T47D, MCF7, HCC1428 and other cells were cultured at 37° C. with 5% CO2 in RPMI 1640 or DMEM medium supplemented with 10% fetal bovine serum. Cells were authenticated using the short tandem repeat (STR) assays. Mycoplasma test results were negative. For palbo-resistant cell model, T47D cells were cultured long-term to resistance in the presence of 1 μM Palbociclib. Cells were deemed resistant when growing in the presence of Palbo at the same rate as parental cells.
(§6) Cultured cells were washed with cold PBS once and lysed in cold RIPA buffer supplemented with protease inhibitors and phosphatase inhibitors (Beyotime Biotechnology). The solutions were then incubated at 4 ? for 30 min with gentle agitation to fully lysed cells. Cell lysates were centrifuged at 13,000 rpm for 10 min at 4 ? and pellets were discarded. Total protein concentrations in the lysates were determined following BCA assays (Beyotime Biotechnology). Cell lysates were mixed with Laemmli loading buffer and heated at 99° C. for 5 min. Proteins were resolved on SDS-PAGE and visualized using Western ECL Substrate kits on a ChemiDoc MP Imaging system (Bio-Rad). Protein bands were quantitated using the Image Lab software provided by Bio-Rad.

CCND3 = test: Immunoblotting of CCND3 protein level in Calu-1 and MCF7 cells (FIG. 1A-1B); conditions: Calu-1 cells, 4 hours
Method: as §3, §4, §5, §6

T47D cells [6] = test: Annexin V apoptosis flow cytometry, T47D (FIG. 3A); conditions: doses approximating IC50 and IC90, 6 days
Method: as §2, with “IC50 and” for “IC50and”, “Kit.” for “Kit. The percentages of early apoptotic (Annexin V^+7-AAD^−, lower right quadrant), late apoptotic (Annexin V^+7-AAD^+, upper right quadrant) and necrotic cells (Annexin V^−7-AAD^+, upper left quadrant) are indicated on dot plots.”
(§7) Assays were performed on the CytoFLEX Cytometer (Beckman Coulter), and data were analyzed using CytExpert software. For cell death and apoptosis analysis, cells were harvested by trypsinization, staining was carried out using the Annexin V Apoptosis Detection Kit (BD Biosciences). Briefly, cells were resuspended in 1× binding buffer and incubated with fluorochrome-conjugated Annexin V and 7-AAD for 15 min in darkness at room temperature.

HCC1428 cells [7] = test: Annexin V apoptosis flow cytometry, HCC1428 (FIG. 3B); conditions: HCC1428, dose approximating IC90, 6 days
Method: as §2, with “IC50 and” for “IC50and”, “Kit.” for “Kit. The percentages of early apoptotic (Annexin V^+7-AAD^−, lower right quadrant), late apoptotic (Annexin V^+7-AAD^+, upper right quadrant) and necrotic cells (Annexin V^−7-AAD^+, upper left quadrant) are indicated on dot plots.”
as §7

CDK4 = CDK4 (Homo sapiens, UniProt P11802+Q16531); test: Immunoblotting of CDK4 protein level in Calu-1 and MCF7 cells (FIG. 1A-1B); set-up: Cells that express cyclin D1-3 and CDK4/6 proteins were treated with heterobifunctional compounds; endogenous in cells; host or cells: Calu-1; conditions: Calu-1 cells, 4 hours
CDK4, sequence (P11802 2-303 limits assumed): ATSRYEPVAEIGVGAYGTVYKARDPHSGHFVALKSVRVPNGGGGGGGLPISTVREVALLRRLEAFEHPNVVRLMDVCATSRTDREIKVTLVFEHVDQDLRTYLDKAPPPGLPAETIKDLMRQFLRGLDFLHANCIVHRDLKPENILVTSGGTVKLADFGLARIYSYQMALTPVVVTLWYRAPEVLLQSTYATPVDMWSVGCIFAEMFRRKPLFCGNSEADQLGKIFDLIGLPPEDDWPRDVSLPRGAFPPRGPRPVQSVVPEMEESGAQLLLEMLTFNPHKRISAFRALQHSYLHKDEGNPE
CDK4, sequence (P24385 whole entry partner): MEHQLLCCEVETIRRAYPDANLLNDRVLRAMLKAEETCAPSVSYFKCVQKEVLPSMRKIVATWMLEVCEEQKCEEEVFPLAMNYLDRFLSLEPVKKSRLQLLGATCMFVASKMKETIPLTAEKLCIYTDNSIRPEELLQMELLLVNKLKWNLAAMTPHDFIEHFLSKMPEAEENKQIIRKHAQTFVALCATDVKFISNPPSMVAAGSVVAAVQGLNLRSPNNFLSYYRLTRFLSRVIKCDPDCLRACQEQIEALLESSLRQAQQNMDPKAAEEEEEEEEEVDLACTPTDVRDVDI
CDK4, sequence (Q16531 2-1140 limits assumed): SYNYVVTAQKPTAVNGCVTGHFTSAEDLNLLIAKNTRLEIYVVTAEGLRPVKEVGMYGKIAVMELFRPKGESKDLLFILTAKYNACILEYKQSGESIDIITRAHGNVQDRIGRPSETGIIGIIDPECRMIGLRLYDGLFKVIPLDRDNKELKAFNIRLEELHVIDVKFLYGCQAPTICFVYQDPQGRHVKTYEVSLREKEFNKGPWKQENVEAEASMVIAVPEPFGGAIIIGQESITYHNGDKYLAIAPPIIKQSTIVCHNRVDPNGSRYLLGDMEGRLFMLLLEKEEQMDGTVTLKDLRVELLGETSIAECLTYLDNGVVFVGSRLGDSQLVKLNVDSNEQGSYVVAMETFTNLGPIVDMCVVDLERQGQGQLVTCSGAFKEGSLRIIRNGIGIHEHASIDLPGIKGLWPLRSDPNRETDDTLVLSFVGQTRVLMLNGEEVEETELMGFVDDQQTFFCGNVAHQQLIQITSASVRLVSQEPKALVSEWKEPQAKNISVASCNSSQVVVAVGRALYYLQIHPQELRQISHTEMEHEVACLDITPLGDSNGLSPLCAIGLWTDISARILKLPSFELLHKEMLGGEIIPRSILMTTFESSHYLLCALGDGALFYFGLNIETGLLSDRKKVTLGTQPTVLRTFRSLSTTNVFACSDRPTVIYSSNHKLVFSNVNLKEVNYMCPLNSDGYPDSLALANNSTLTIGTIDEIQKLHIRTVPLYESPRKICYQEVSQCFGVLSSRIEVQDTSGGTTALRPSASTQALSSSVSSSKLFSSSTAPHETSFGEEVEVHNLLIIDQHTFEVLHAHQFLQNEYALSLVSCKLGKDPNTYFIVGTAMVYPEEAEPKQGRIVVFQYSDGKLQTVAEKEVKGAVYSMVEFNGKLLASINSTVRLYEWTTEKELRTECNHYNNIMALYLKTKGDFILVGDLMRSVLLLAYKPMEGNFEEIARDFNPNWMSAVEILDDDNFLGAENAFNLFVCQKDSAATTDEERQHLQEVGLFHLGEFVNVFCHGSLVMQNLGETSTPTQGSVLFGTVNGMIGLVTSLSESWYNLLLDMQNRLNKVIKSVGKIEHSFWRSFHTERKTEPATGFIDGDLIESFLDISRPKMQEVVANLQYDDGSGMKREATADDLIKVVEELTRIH
Method: as §3, §4, §5, §6

CC(=O)c1c(C)c2cnc(Nc3ccc(N4CCNCC4)cn3)nc2n(C2CCCC2)c1=O [Palbociclib, palbociclib, reference compound]
effect on CCND and CDK4 protein levels (result in words) [1]: no significant effect | effect on CCND1 protein levels (result in words) [2]: accumulation of CCND1 protein levels | Annexin V+ population (T47D cells [3]; 100 nM): 15.9% | Annexin V+ population (T47D cells [3]; 1 μM): 26.1% | Annexin V+ population (HCC1428 cells [4]): 17.7% | IC50 [5]: > 10 µM | CCND1 protein level (CCND1; Calu-1 cells, 4 hours): did not significantly change the levels of these proteins in Calu-1 cells | CCND1 protein level (CCND1; MCF7 cells, serum deprived 2 hours, treated 24 hours): accumulated CCND1 protein levels in MCF7 cells | CCND3 protein level (CCND3): did not significantly change the levels of these proteins in Calu-1 cells | cell apoptosis (T47D cells [6]): much less effect on cell apoptosis | cell apoptosis (HCC1428 cells [7]): much less effect on cell apoptosis | CDK4 protein level (CDK4): did not significantly change the levels of these proteins in Calu-1 cells
